Source: the supplement of paper PMC10307832

Columns and labels:
Assay in all cases: relative viability (nuclei count vs DMSO), 5 days (fraction); higher = more cells survive
BI-D1870 + Tozasertib = compound: CC(C)CCN1c2nc(Nc3cc(F)c(O)c(F)c3)ncc2N(C)C(=O)C1C [BI-D1870] + Cc1cc(Nc2cc(N3CCN(C)CC3)nc(Sc3ccc(NC(=O)C4CC4)cc3)n2)n[nH]1 [Tozasertib] (partner 0.1 µM)
Summary of the method: (§1)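 Lung cancer cell lines were seeded in 1536-well plates and dosed by pin tool the next day, with either a single drug or a fixed anchor-drug dose combined with five library-drug doses (not always all listed) spaced in √10 steps. Five days later, one step fixed the cells and stained their nuclei (final 0.05% Triton X-100, 1% formaldehyde, 1 ug/ml Hoechst), and nuclei were counted on 4× images. Relative viability is the nuclei count in treated wells divided by the count in vehicle wells, and each value is the median of duplicate plates.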

Zebularine + Navitoclax = compound: O=c1ncccn1[C@@H]1O[C@H](CO)[C@@H](O)[C@H]1O [Zebularine] + CC1(C)CCC(c2ccc(Cl)cc2)=C(CN2CCN(c3ccc(C(=O)NS(=O)(=O)c4ccc(N[C@H](CCN5CCOCC5)CSc5ccccc5)c(S(=O)(=O)C(F)(F)F)c4)cc3)CC2)C1 [Navitoclax] (partner 0.5 µM)
Summary of the method: as §1

Zebularine + Crizotinib = compound: O=c1ncccn1[C@@H]1O[C@H](CO)[C@@H](O)[C@H]1O [Zebularine] + C[C@@H](Oc1cc(-c2cnn(C3CCNCC3)c2)cnc1N)c1c(Cl)ccc(F)c1Cl [Crizotinib] (partner 1 µM)
Summary of the method: as §1

Zebularine + Pemetrexed = compound: O=c1ncccn1[C@@H]1O[C@H](CO)[C@@H](O)[C@H]1O [Zebularine] + Nc1nc2[nH]cc(CCc3ccc(C(=O)N[C@@H](CCC(=O)O)C(=O)O)cc3)c2c(=O)[nH]1 [Pemetrexed] (partner 0.2 µM)
Summary of the method: as §1

| Cell Line | relative viability (BI-D1870 + Tozasertib; first compound 0.04 µM) | relative viability (BI-D1870 + Tozasertib; first compound 0.1265 µM) | relative viability (BI-D1870 + Tozasertib; first compound 0.4 µM) | relative viability (BI-D1870 + Tozasertib; first compound 1.265 µM) | relative viability (BI-D1870 + Tozasertib; first compound 4 µM) | relative viability (Zebularine + Navitoclax; first compound 1 µM) | relative viability (Zebularine + Navitoclax; first compound 3.162 µM) | relative viability (Zebularine + Navitoclax; first compound 10 µM) | relative viability (Zebularine + Navitoclax; first compound 31.62 µM) | relative viability (Zebularine + Navitoclax; first compound 100 µM) | relative viability (Zebularine + Crizotinib; first compound 1 µM) | relative viability (Zebularine + Crizotinib; first compound 3.162 µM) | relative viability (Zebularine + Crizotinib; first compound 10 µM) | relative viability (Zebularine + Crizotinib; first compound 31.62 µM) | relative viability (Zebularine + Crizotinib; first compound 100 µM) | relative viability (Zebularine + Pemetrexed; first compound 1 µM) | relative viability (Zebularine + Pemetrexed; first compound 3.162 µM) | relative viability (Zebularine + Pemetrexed; first compound 10 µM) | relative viability (Zebularine + Pemetrexed; first compound 31.62 µM) | relative viability (Zebularine + Pemetrexed; first compound 100 µM) |
| --- | --- | --- | --- | --- | --- | --- | --- | --- | --- | --- | --- | --- | --- | --- | --- | --- | --- | --- | --- | --- |
| NCI-H460 | 0.467 | 0.0966 | 0.104 | 0.0609 | 0.0499 | 1.26 | 1.18 | 0.0689 | 0.413 | 0.0857 | 1.06 | 0.987 | 0.273 | 0.375 | 0.1 | 0.0616 | 0.0545 | 0.08 | 0.076 | 0.0682 |
| NCI-H1734 | 0.249 | 0.263 | 0.288 | 0.256 | 0.22 | 0.926 | 0.769 | 0.513 | 0.475 | 0.22 | 0.71 | 0.696 | 0.391 | 0.384 | 0.295 | 0.39 | 0.459 | 0.395 | 0.36 | 0.232 |
| LXF-289 | 0.173 | 0.211 | 0.191 | 0.183 | 0.195 | 1.02 | 0.945 | 0.851 | 0.744 | 0.226 | 0.835 | 0.828 | 0.714 | 0.622 | 0.238 | 0.919 | 0.879 | 0.895 | 0.702 | 0.403 |
| H3255 | 0.641 | 0.57 | 0.68 | 0.604 | 0.739 | 0.627 | 0.453 | – | 0.36 | 0.409 | 0.945 | 0.853 | 0.576 | 0.91 | 0.858 | 0.641 | 0.576 | 0.553 | 0.516 | 0.563 |
| 201T | 0.993 | 0.905 | 0.935 | 0.955 | 0.936 | 1.21 | 1.21 | 0.981 | 1.19 | 1.18 | 1.08 | 1.03 | 0.861 | 1.11 | 1.01 | 0.359 | 0.343 | 0.35 | 0.311 | 0.271 |
| NCI-H2126 | 0.899 | 0.794 | 0.78 | 0.722 | 0.538 | 0.862 | 0.813 | 0.766 | 0.735 | 0.509 | 1.11 | 0.987 | 0.958 | 0.804 | 0.503 | 0.635 | 0.487 | 0.592 | 0.453 | 0.348 |
